Test results published in US20070264355A1, “BINARY COMPOSITIONS AND METHODS FOR STERILIZATION” (Binary, LLC, priority 2005, published 2007).
“Also recorded” adds a separate entry of the source.

Legend:
Type in all cases: cell-based
[1] = test system: Bacillus subtilis (ATCC 19659) spores; experiment: Microbicidal activity against Bacillus subtilis spores (suspension test, surviving CFU)
Source text: (§1) Each solution was used alone for the individual controls. Organism suspensions were used to achieve a final target concentration of 2-3×10^6 CFU per ml. For the binary system treatments, sodium hypochlorite solution and hydrogen peroxide solution, non-acidified or acidified, were sequentially added to the microorganisms. Acidified hydrogen peroxide solution was obtained by the addition of 1.0% v/v of 0.001 N hydrochloride solution. After each addition, the resulting mixture was allowed to remain in contact with the organisms for a set amount of time at room temperature (about 22° C.), as listed in the Tables 1 and 2. At the end of the treatment time, the mixtures were neutralized with 200 to 500 microliters of thiosulfate solution (2.4%) to quench the activity of sodium hypochlorite and then treated with 100 to 200 microliters of a 1% catalase solution, containing a minimum of 100 units/ul, to quench the hydrogen peroxide activity. If needed, an appropriate volume of sterile saline was added to bring the final volume of reaction mixture to 1.4 ml after neutralization. Serial dilution plate counts were performed from the contents of each vial in sterile saline and inoculated onto TSA for quantitative culture. Plates were then incubated at 37° C. and counts taken at 24 hours.
Suspensions of Bacillus subtilis (ATCC 19659) containing 100% spores, as confirmed by microscopy, were obtained by washing the spun-down cells with 50% ethanol to eliminate the vegetative form. Starting inoculum of approximately 1-3×10^6 CFU was used as in Example 1.
[…] The binary system was neutralized 30 minutes after addition of hydrogen peroxide using 2.4% thiosulfate and 1% catalase as described in Example 1.

[2] = test system: Staphylococcus aureus (ATCC 6538); experiment: Microbicidal activity against Staphylococcus aureus (suspension test, surviving CFU)
Description: Bacterial suspensions, specifically Staphylococcus aureus (ATCC 6538) in this example, were prepared by the shake flask method to achieve late log to early stationary phase growth. Bacteria were grown 24 hours in trypticase soy broth (TSB) at 35° C. The cultures were centrifuged at 4,000 rpm for 10 minutes and the supernatants removed. The pellet was collected and washed twice with sterile 0.9% normal saline. The washed microorganisms were suspended and diluted with normal saline to a 3 McFarland standard, i.e., approximately 10^9 bacteria colony forming units (CFU) per ml. Actual colony counts are confirmed by serial dilutions (10^−1 to 10^−5 or 10^−6) plated on trypticase soy agar (TSA) and incubated overnight at 35° C. One hundred microliters of organisms from a stock of 10^7 CFU/ml were used to obtain an approximate final working target inoculum of 10^6 CFU. The microbicidal test is conducted in a vial containing 1.4 ml of final reaction mixture after neutralization.
as §1
After an additional 30 minutes, the binary system mixture was then neutralized using 2.4% thiosulfate followed by 1% catalase as described in the Methods Section.

Staphylococcus aureus = experiment: Microbicidal activity of commonly used antiseptics against Staphylococcus aureus; settings: inoculum 1475000 CFU
Description: (§2) The performance of commonly used antiseptics was tested against Bacillus subtilis and Staphylococcus aureus, following the general procedure of Example 1, to assess the improvement provided by the binary system over these compounds.
[…] Chlorhexidine and IPA were neutralized with 500 microliters of a solution containing 3% Saponin, 3% Tween-80, 0.3% lecithin, and 0.1% histidine. Povidone Iodine was neutralized with 500 microliters of thiosulfate solution (2.4%).

Bacillus subtilis spores = experiment: Microbicidal activity of commonly used antiseptics against Bacillus subtilis spores
Description: as §2
After 60 minutes of exposure to the organisms, the individual antiseptics, indicated in Table 15 and Table 16, were neutralized using the corresponding neutralizing solutions prepared as listed below in Materials. Chlorhexidine and IPA were neutralized with 500 microliters of a solution containing 3% Saponin, 3% Tween-80, 0.3% lecithin, and 0.1% histidine. Povidone Iodine was neutralized with 500 microliters of thiosulfate solution (2.4%).

[3] = test system: Escherichia coli (ATCC 25922); experiment: Microbicidal activity against Escherichia coli (suspension test, surviving CFU); settings: H2O2 88 mM 15 min; inoculum 1630000 CFU
Source text: as §1, with “hours. […]” for “hours.”

[4] = H2O2/H+ 35.25 mM 30 min, inoculum 1120000 CFU
[5] = H2O2/H+ 0.35 mM 30 min, inoculum 2530000 CFU
[6] = PVI 10.00% 60 min, inoculum 1120000 CFU
[7] = H2O2 35.25 mM 30 min, inoculum 1120000 CFU
[8] = H2O2 88 mM 60 min, inoculum 1865000 CFU
[9] = H2O2 294 mM 60 min, inoculum 1865000 CFU
[10] = H2O2 882 mM 60 min, inoculum 1865000 CFU
[11] = H2O2 2940 mM 60 min, inoculum 1865000 CFU
[12] = H2O2 8821 mM 60 min, inoculum 1865000 CFU
[13] = H2O2 0.35 mM 30 min, inoculum 2530000 CFU
[14] = H2O2 88 mM 5 min, inoculum 1600000 CFU
[15] = H2O2 88 mM 15 min, inoculum 1600000 CFU
[16] = H2O2 88 mM 30 min, inoculum 1600000 CFU
[17] = H2O2 294 mM 5 min, inoculum 1600000 CFU
[18] = H2O2 294 mM 15 min, inoculum 1600000 CFU
[19] = H2O2 294 mM 30 min, inoculum 1600000 CFU
[20] = H2O2 882 mM 5 min, inoculum 1600000 CFU
[21] = H2O2 882 mM 15 min, inoculum 1600000 CFU
[22] = H2O2 882 mM 30 min, inoculum 1600000 CFU
[23] = H2O2 2940 mM 5 min, inoculum 1600000 CFU
[24] = H2O2 2940 mM 15 min, inoculum 1600000 CFU
[25] = H2O2 2940 mM 30 min, inoculum 1600000 CFU
[26] = H2O2 8821 mM 5 min, inoculum 1600000 CFU
[27] = H2O2 8821 mM 15 min, inoculum 1600000 CFU
[28] = H2O2 8821 mM 30 min, inoculum 1600000 CFU
[29] = IPA 0.07% 60 min, inoculum 1865000 CFU
[30] = IPA 0.70% 60 min, inoculum 1865000 CFU
[31] = IPA 7% 60 min, inoculum 1865000 CFU
[32] = IPA 70% 60 min, inoculum 1865000 CFU

OO [H2O2/H+, hydrogen peroxide]
Log 10 (CFU + 1) Survivors [1, 4]: 6.2 | Log Reduction [1, 4]: −0.2 | Total Viability (CFU) [1, 4]: 1624000 CFU | Log 10 (CFU + 1) Survivors [2, 5]: 6.2 | Log Reduction [2, 5]: 0.2 | Total Viability (CFU) [2, 5]: 1708000 CFU

Povidone Iodine [PVI]
Log 10 (CFU + 1) Survivors (Staphylococcus aureus; PVI 10.00% 15 min): 0.0 | Log Reduction (Staphylococcus aureus; PVI 10.00% 15 min): 6.2 | Total Viability (CFU) (Staphylococcus aureus; PVI 10.00% 15 min): 0 CFU | Log 10 (CFU + 1) Survivors (Bacillus subtilis spores; [6]): 5.3 | Log Reduction (Bacillus subtilis spores; [6]): 0.8 | Total Viability (CFU) (Bacillus subtilis spores; [6]): 189000 CFU

OO [H2O2, hydrogen peroxide]
Log 10 (CFU + 1) Survivors [3]: 5.8 | Log Reduction [3]: 0.4 | Total Viability (CFU) [3]: 588000 CFU | Log 10 (CFU + 1) Survivors [1, 7]: 6.1 | Log Reduction [1, 7]: −0.1 | Total Viability (CFU) [1, 7]: 1358000 CFU | Log 10 (CFU + 1) Survivors [1, 8]: 6.3 | Log Reduction [1, 8]: 0.0 | Total Viability (CFU) [1, 8]: 1974000 CFU | Log 10 (CFU + 1) Survivors [1, 9]: 6.2 | Log Reduction [1, 9]: 0.1 | Total Viability (CFU) [1, 9]: 1484000 CFU | Log 10 (CFU + 1) Survivors [1, 10]: 5.3 | Log Reduction [1, 10]: 1.0 | Total Viability (CFU) [1, 10]: 200200 CFU | Log 10 (CFU + 1) Survivors [1, 11]: 2.8 | Log Reduction [1, 11]: 3.5 | Total Viability (CFU) [1, 11]: 588 CFU | Log 10 (CFU + 1) Survivors [1, 12]: 0.0 | Log Reduction [1, 12]: 6.3 | Total Viability (CFU) [1, 12]: 0 CFU | microbicidal activity (kill of inoculum) ([1]; hydrogen peroxide 8821 mM, within 60 minutes, 6.3 log10 CFU inoculum): complete kill | microbicidal activity (kill of inoculum) ([1]; hydrogen peroxide 294 to 88 mM, within 60 minutes): no microbicidal activity | microbicidal activity (kill of inoculum) ([1]; hydrogen peroxide 2940 and 882 mM, 60 minutes): partial kill | Log 10 (CFU + 1) Survivors [2, 13]: 6.2 | Log Reduction [2, 13]: 0.2 | Total Viability (CFU) [2, 13]: 1764000 CFU | Log 10 (CFU + 1) Survivors [2, 14]: 6.2 | Log Reduction [2, 14]: 0.0 | Total Viability (CFU) [2, 14]: 1694000 CFU | Log 10 (CFU + 1) Survivors [2, 15]: 6.3 | Log Reduction [2, 15]: −0.1 | Total Viability (CFU) [2, 15]: 2044000 CFU | Log 10 (CFU + 1) Survivors [2, 16]: 6.3 | Log Reduction [2, 16]: −0.1 | Total Viability (CFU) [2, 16]: 1792000 CFU | Log 10 (CFU + 1) Survivors [2, 17]: 6.1 | Log Reduction [2, 17]: 0.1 | Total Viability (CFU) [2, 17]: 1288000 CFU | Log 10 (CFU + 1) Survivors [2, 18]: 6.1 | Log Reduction [2, 18]: 0.1 | Total Viability (CFU) [2, 18]: 1190000 CFU | Log 10 (CFU + 1) Survivors [2, 19]: 1.3 | Log Reduction [2, 19]: 4.9 | Total Viability (CFU) [2, 19]: 21 CFU | Log 10 (CFU + 1) Survivors [2, 20]: 4.1 | Log Reduction [2, 20]: 2.1 | Total Viability (CFU) [2, 20]: 12040 CFU | Log 10 (CFU + 1) Survivors [2, 21]: 0.0 | Log Reduction [2, 21]: 6.2 | Total Viability (CFU) [2, 21]: 0 CFU | Log 10 (CFU + 1) Survivors [2, 22]: 0.0 | Log Reduction [2, 22]: 6.2 | Total Viability (CFU) [2, 22]: 0 CFU | Log 10 (CFU + 1) Survivors [2, 23]: 0.0 | Log Reduction [2, 23]: 6.2 | Total Viability (CFU) [2, 23]: 0 CFU | Log 10 (CFU + 1) Survivors [2, 24]: 0.0 | Log Reduction [2, 24]: 6.2 | Total Viability (CFU) [2, 24]: 0 CFU | Log 10 (CFU + 1) Survivors [2, 25]: 0.0 | Log Reduction [2, 25]: 6.2 | Total Viability (CFU) [2, 25]: 0 CFU | Log 10 (CFU + 1) Survivors [2, 26]: 0.0 | Log Reduction [2, 26]: 6.2 | Total Viability (CFU) [2, 26]: 0 CFU | Log 10 (CFU + 1) Survivors [2, 27]: 0.0 | Log Reduction [2, 27]: 6.2 | Total Viability (CFU) [2, 27]: 0 CFU | Log 10 (CFU + 1) Survivors [2, 28]: 0.0 | Log Reduction [2, 28]: 6.2 | Total Viability (CFU) [2, 28]: 0 CFU | microbicidal activity (kill of inoculum) ([2]; highest concentration of hydrogen peroxide used in the binary system, tested alone): completely ineffective and produced no kill | microbicidal activity (kill of inoculum) ([2]; hydrogen peroxide 88 mM, within 30 minutes): no microbicidal activity; also recorded: not microbicidal | microbicidal activity (kill of inoculum) ([2]; hydrogen peroxide 8821 and 2940 mM, within 5 minutes, 6.2 log10 CFU inoculum): complete kill | microbicidal activity (kill of inoculum) ([2]; hydrogen peroxide intermediate concentrations): partial kill

CC(C)O [IPA, Isopropyl Alcohol]
Log 10 (CFU + 1) Survivors (Staphylococcus aureus; IPA 0.07% 15 min): 6.3 | Log Reduction (Staphylococcus aureus; IPA 0.07% 15 min): −0.1 | Total Viability (CFU) (Staphylococcus aureus; IPA 0.07% 15 min): 1932000 CFU | Log 10 (CFU + 1) Survivors (Staphylococcus aureus; IPA 0.70% 15 min): 6.3 | Log Reduction (Staphylococcus aureus; IPA 0.70% 15 min): −0.1 | Total Viability (CFU) (Staphylococcus aureus; IPA 0.70% 15 min): 1988000 CFU | Log 10 (CFU + 1) Survivors (Staphylococcus aureus; IPA 7% 15 min): 6.3 | Log Reduction (Staphylococcus aureus; IPA 7% 15 min): −0.1 | Total Viability (CFU) (Staphylococcus aureus; IPA 7% 15 min): 1834000 CFU | Log 10 (CFU + 1) Survivors (Staphylococcus aureus; IPA 70% 15 min): 0.0 | Log Reduction (Staphylococcus aureus; IPA 70% 15 min): 6.2 | Total Viability (CFU) (Staphylococcus aureus; IPA 70% 15 min): 0 CFU | Log 10 (CFU + 1) Survivors (Bacillus subtilis spores; [29]): 6.4 | Log Reduction (Bacillus subtilis spores; [29]): −0.1 | Total Viability (CFU) (Bacillus subtilis spores; [29]): 2422000 CFU | Log 10 (CFU + 1) Survivors (Bacillus subtilis spores; [30]): 6.3 | Log Reduction (Bacillus subtilis spores; [30]): −0.1 | Total Viability (CFU) (Bacillus subtilis spores; [30]): 2170000 CFU | Log 10 (CFU + 1) Survivors (Bacillus subtilis spores; [31]): 6.4 | Log Reduction (Bacillus subtilis spores; [31]): −0.1 | Total Viability (CFU) (Bacillus subtilis spores; [31]): 2352000 CFU | Log 10 (CFU + 1) Survivors (Bacillus subtilis spores; [32]): 6.3 | Log Reduction (Bacillus subtilis spores; [32]): 0.0 | Total Viability (CFU) (Bacillus subtilis spores; [32]): 2044000 CFU | activity against B. subtilis spores (Bacillus subtilis spores; any concentration tested, 60 min): did not demonstrate activity
